IC50 data for 21 molecules are collected here from patent US11332459B2 (TEIJIN PHARMA LIMITED, priority 2017, dated 2022).

For this assay, the target named is T1, human TRPC6 (Homo sapiens, UniProt Q9Y210).
T1 construct: expressed in transfected cells
T1 sequence (Q9Y210 1-931): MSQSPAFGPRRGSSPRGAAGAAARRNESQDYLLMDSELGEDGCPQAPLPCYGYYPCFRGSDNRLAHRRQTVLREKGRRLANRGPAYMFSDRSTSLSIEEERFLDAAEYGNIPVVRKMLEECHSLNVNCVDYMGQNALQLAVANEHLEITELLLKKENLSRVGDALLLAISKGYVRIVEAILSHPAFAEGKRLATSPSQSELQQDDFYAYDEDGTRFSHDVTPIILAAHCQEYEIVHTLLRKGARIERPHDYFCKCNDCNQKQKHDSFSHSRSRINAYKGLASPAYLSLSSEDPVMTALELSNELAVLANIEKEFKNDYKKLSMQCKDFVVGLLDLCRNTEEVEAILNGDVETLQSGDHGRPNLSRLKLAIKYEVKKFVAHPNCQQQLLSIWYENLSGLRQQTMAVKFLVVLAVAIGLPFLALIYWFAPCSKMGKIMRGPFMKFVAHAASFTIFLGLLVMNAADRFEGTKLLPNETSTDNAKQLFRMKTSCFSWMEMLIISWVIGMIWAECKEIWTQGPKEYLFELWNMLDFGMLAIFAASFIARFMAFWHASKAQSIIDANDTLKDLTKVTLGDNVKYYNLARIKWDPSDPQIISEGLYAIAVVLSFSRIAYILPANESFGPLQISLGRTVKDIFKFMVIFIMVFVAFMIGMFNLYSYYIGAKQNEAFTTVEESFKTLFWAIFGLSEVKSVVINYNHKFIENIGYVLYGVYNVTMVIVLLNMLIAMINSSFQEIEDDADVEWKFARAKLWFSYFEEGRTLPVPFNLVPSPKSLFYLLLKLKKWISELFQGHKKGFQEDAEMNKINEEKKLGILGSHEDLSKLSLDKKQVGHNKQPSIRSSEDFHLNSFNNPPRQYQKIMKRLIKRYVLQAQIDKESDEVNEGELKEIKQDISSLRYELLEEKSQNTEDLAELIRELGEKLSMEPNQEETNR
Kind of assay: TRPC6 calcium flux assay (FLIPR, OAG-stimulated calcium influx). The format is cell-based. Particulars: HEK293 cells stably transfected with human TRPC6, read-out: hTRPC6 Potency. The method, boiled down:
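IC50 derived by plotting background-corrected peak fluorescence (180 s window, normalized to OAG-triggered signal vs buffer) against dose. Stable human TRPC6 HEK293 line was dye-loaded, exposed to compound 25 min, then challenged with 50 uM final OAG in 2 mM Ca2+ HEPES buffer pH 7.2, 0.5% DMSO.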
In the case of `N#Cc1ccc(Cn2c(N3CC[C@@H](F)[C@H](N)C3)nc3cc(C(F)(F)F)cnc32)nc1` [Example 519, 6-((2-((3R,4R)-3-amino-4-fluoropiperidin-1-yl)-6-(trifluoromethyl)-3H-imidazo[4,5-b]pyridin-3-yl)methyl)nicotinonitrile], the IC50 was 0.476 µM.

Turning to `N[C@@H]1CN(c2nc3ccccc3n2CC(=O)N2CCC2)CC[C@H]1F` [Example 520, 2-(2-((3R,4R)-3-amino-4-fluoropiperidin-1-yl)-1H-benzo[d]imidazol-1-yl)-1-(azetidin-1-yl)ethan-1-one], the IC50 turned out to be 0.686 µM.

As to `NC(=O)C1CCCCN1C(=O)Cn1c(N2CC[C@@H](F)[C@H](N)C2)nc2cc(F)c(F)cc21` (stereo partly drawn) [Example 521], the IC50 came to 0.757 µM.

In the case of `COc1ccnc(Cn2c(N3CC[C@@H](F)[C@H](N)C3)nc3cc(F)ccc32)c1` [Example 524, (3R,4R)-4-fluoro-1-(5-fluoro-1-((4-methoxypyridin-2-yl)methyl)-1H-benzo[d]imidazol-2-yl)piperidin-3-amine], the IC50 stood at 1.49 µM.

Turning to `N[C@@H]1CN(c2nc3cc(F)c(F)cc3n2CC(=O)N(C2CC2)C2CCS(=O)(=O)C2)CC[C@H]1F` (stereo partly drawn) [Example 526, 2-(2-((3R,4R)-3-amino-4-fluoropiperidin-1-yl)-5,6-difluoro-1H-benzo[d]imidazol-1-yl)-N-cyclopropyl-N-(1,1-dioxidotetrahydrothiophen-3-yl)acetamide], the IC50 was 2.85 µM.

For the molecule `N[C@@H]1CN(c2nc3cc(F)c(F)cc3n2CC(=O)N2CCNC(=O)C2)CC[C@H]1F` [Example 528, 4-(2-(2-((3R,4R)-3-amino-4-fluoropiperidin-1-yl)-5,6-difluoro-1H-benzo[d]imidazol-1-yl)acetyl)piperazin-2-one], the IC50 was above 3.75 µM.

Take `N[C@@H]1CN(c2nc3cc(F)c(F)cc3n2CC(=O)N2CCC(C(=O)N3CCCC3)CC2)CC[C@H]1F` [Example 529, 2-(2-((3R,4R)-3-amino-4-fluoropiperidin-1-yl)-5,6-difluoro-1H-benzo[d]imidazol-1-yl)-1-(4-(pyrrolidine-1-carbonyl)piperidin-1-yl)ethan-1-one]: the IC50 was above 1.75 µM.

Consider `N[C@@H]1CN(c2nc3cc(F)c(F)cc3n2CC(=O)N2CCN(C(=O)C3CC3)CC2)CC[C@H]1F` [Example 531, 2-(2-((3R,4R)-3-amino-4-fluoropiperidin-1-yl)-5,6-difluoro-1H-benzo[d]imidazol-1-yl)-1-(4-(cyclopropanecarbonyl)piperazin-1-yl)ethan-1-one], for which the IC50 was above 3.75 µM.

Regarding `NC(=O)C1CCN(C(=O)Cn2c(N3CC[C@@H](F)[C@H](N)C3)nc3cc(F)c(F)cc32)CC1` [Example 532, 1-(2-(2-((3R,4R)-3-amino-4-fluoropiperidin-1-yl)-5,6-difluoro-1H-benzo[d]imidazol-1-yl)acetyl)piperidine-4-carbaxamide], the IC50 is above 3.75 µM.

With `CN(C(=O)Cn1c(N2CC[C@@H](F)[C@H](N)C2)nc2cc(F)c(F)cc21)C(C)(C)C#N` [Example 533, 2-(2-((3R,4R)-3-amino-4-fluoropiperidin-1-yl)-5,6-difluoro-1H-benzo[d]imidazol-1-yl)-N-(2-cyanopropan-2-yl)-N-methylacetamide], the IC50 is above 3.75 µM.

For the molecule `CNC(=O)C1CCN(C(=O)Cn2c(N3CC[C@@H](F)[C@H](N)C3)nc3cc(F)c(F)cc32)CC1` [Example 534, 1-(2-(2-((3R,4R)-3-amino-4-fluoropiperidin-1-yl)-5,6-difluoro-1H-benzo[d]imidazol-1-yl)acetyl)-N-methylpiperidine-4-carboxamide], the IC50 is above 3.75 µM.

In the case of `CC(=O)NC1CCCN(C(=O)Cn2c(N3CC[C@@H](F)[C@H](N)C3)nc3cc(F)c(F)cc32)C1` (stereo partly drawn) [Example 535, N-(1-(2-(2-((3R,4R)-3-amino-4-fluoropiperidin-1-yl)-5,6-difluoro-1H-benzo[d]imidazol-1-yl)acetyl)piperidin-3-yl)acetamide], the IC50 is above 3.75 µM.

Turning to `N[C@@H]1CN(c2nc3cc(F)c(F)cc3n2CC(=O)N2CCC(C(=O)N3CCCCC3)CC2)CC[C@H]1F` [Example 536, 2-(2-((3R,4R)-3-amino-4-fluoropiperidin-1-yl)-5,6-difluoro-1H-benzo[d]imidazol-1-yl)-1-(4-(piperidine-1-carbonyl)piperidin-1-yl)ethan-1-one], the IC50 was above 3.75 µM.

Take `N[C@@H]1CN(c2nc3cc(F)c(F)cc3n2CC(=O)N2CCC(C(=O)N3CCCCCC3)CC2)CC[C@H]1F` [Example 537, 2-(2-((3R,4R)-3-amino-4-fluoropiperidin-1-yl)-5,6-difluoro-1H-benzo[d]imidazol-1-yl)-1-(4-(azepane-1-carbonyl)piperidin-1-yl)ethan-1-one]: the IC50 is above 1.75 µM.

Take `COCCN(C(=O)Cn1c(N2CC[C@@H](F)[C@H](N)C2)nc2cc(F)c(F)cc21)C1CCS(=O)(=O)C1` (stereo partly drawn) [Example 538, 2-(2-((3R,4R)-3-amino-4-fluoropiperidin-1-yl)-5,6-difluoro-1H-benzo[d]imidazol-1-yl)-N-(1,1-dioxidotetrahydrothiophen-3-yl)-N-(2-methoxyethyl)acetamide]: the IC50 is above 3.75 µM.

Consider `CC1CCCN(C(=O)C2CCN(C(=O)Cn3c(N4CC[C@@H](F)[C@H](N)C4)nc4cc(F)c(F)cc43)CC2)C1` (stereo partly drawn) [Example 539, 2-(2-((3R,4R)-3-amino-4-fluoropiperidin-1-yl)-5,6-difluoro-1H-benzo[d]imidazol-1-yl)-1-(4-(3-methylpiperidine-1-carbonyl)piperidin-1-yl)ethan-1-one], for which the IC50 is above 3.75 µM.

As to `CC(=O)N1CCN(C(=O)Cn2c(N3CC[C@@H](F)[C@H](N)C3)nc3cc(F)c(F)cc32)CC1` [Example 540, 1-(4-acetylpiperazin-1-yl)-2-(2-((3R,4R)-3-amino-4-fluoropiperidin-1-yl)-5,6-difluoro-1H-benzo[d]imidazol-1-yl)ethan-1-one], the IC50 was above 3.75 µM.

Regarding `N[C@@H]1CN(c2nc3cc(F)c(F)cc3n2CC(=O)N(CC2CCCO2)C2CCS(=O)(=O)C2)CC[C@H]1F` (stereo partly drawn) [Example 541, 2-(2-((3R,4R)-3-amino-4-fluoropiperidin-1-yl)-5,6-difluoro-1H-benzo[d]imidazol-1-yl)-N-(1,1-dioxidotetrahydrothiophen-3-yl)-N-((tetrahydrofuran-2-yl)methyl)acetamide], the IC50 is above 3.75 µM.

As for `CC(C)N(C)C(=O)C1CCN(C(=O)Cn2c(N3CC[C@@H](F)[C@H](N)C3)nc3cc(F)c(F)cc32)CC1` [Example 542, 1-(2-(2-((3R,4R)-3-amino-4-fluoropiperidin-1-yl)-5,6-difluoro-1H-benzo[d]imidazol-1-yl)acetyl)-N-isopropyl-N-methylpiperidine-4-carboxamide], the IC50 is above 3.75 µM.

`COc1cc(F)cc2nc(N3CC[C@@H](F)[C@H](N)C3)n(CC(=O)N(C)CC(F)(F)F)c12` [Example 544, 2-(2-((3R,4R)-3-amino-4-fluoropiperidin-1-yl)-5-fluoro-7-methoxy-1H-benzo[d]imidazol-1-yl)-N-methyl-N-(2,2,2-trifluoroethyl)acetamide]: the IC50 was above 3.75 µM.

`COc1cc(F)cc2c1nc(N1CC[C@@H](F)[C@H](N)C1)n2CC(=O)N1CCOCC1` [Example 545, 2-(2-((3R,4R)-3-amino-4-fluoropiperidin-1-yl)-6-fluoro-4-methoxy-1H-benzo[d]imidazol-1-yl)-1-morpholinoethan-1-one]: the IC50 was above 3.75 µM.
